Experimental data: patent publication US9861117B2 (priority 2009, dated 2018)
Where two headings read alike, the source gives them in different places.

Legend:
[1] = Diarrhoea score of weaned piglets fed supplemented feed; details: 1000 ppm in feed; for Diarrhoea score: average over the total period
Clostridium perfringens [2] = format: in vivo, broilers; parameters: Clostridium perfringens counts in jejunum: unit not given here; details: 1000 ppm in feed; for Clostridium perfringens counts in jejunum: day 13 of age
Clostridium perfringens [3] = format: in vivo; details: 0-42 day, infected broilers, 1000 ppm in feed
Clostridium perfringens [4] = format: cell-based
[5] = Recovery in duodenum, jejunum and ileum of broilers fed supplemented feed; format: in vivo; details: 1000 ppm in feed, day 43 of age, FIG. 3
Text: Broilers were offered feed supplemented with 1000 ppm of either dodecanoic acid or ethyl dodecanoate throughout the trial. At day 43 of age, 12 birds per treatment were sacrificed and the content of the duodenum, jejunum and ileum was harvested and analysed for levels of ethyl dodecanoate and dodecanoic acid. In FIG. 3 the mean levels are depicted.

[6] = Challenged broilers (10^8 CFU C. perfringens day 9-11)
[7] = Overall (challenged and non-challenged)
[8] = Example 1, FIG. 1, all tested levels, broth, 8 hours

| Compound | Diarrhoea score [1] | Clostridium perfringens counts in jejunum (Clostridium perfringens [2]; [6]) | Clostridium perfringens counts in jejunum (Clostridium perfringens [2]; Non-challenged broilers) | Clostridium perfringens counts in jejunum (Clostridium perfringens [2]; [7]) | Feed conversion ratio (Clostridium perfringens [3]) | Feed intake (Clostridium perfringens [3]) | Mortality (Clostridium perfringens [3]) | Weight gain (Clostridium perfringens [3]) | Inhibition of growth of Clostridium perfringens (OD) (Clostridium perfringens [4]; Example 2, FIG. 2, at 67 ppm) | Effect on diarrhoea (in words) ([1]; versus control) | Effect on Clostridium counts in jejunum (in words) (Clostridium perfringens [2]; broilers, versus dodecanoic acid) | Inhibition of growth of Clostridium perfringens (OD) (Clostridium perfringens [4]; [8]) | Inhibition of growth of Clostridium perfringens (OD) (Clostridium perfringens [4]; Example 2, FIG. 2, lowest inclusion level of treatment) | Level recovered in the jejunum [5] |
| --- | --- | --- | --- | --- | --- | --- | --- | --- | --- | --- | --- | --- | --- | --- |
| CCCCCCCCCCCC(=O)O [dodecanoic acid, reference compound] | 46.64 ab | 2.122 | 1.418 | 1.770 | 1.636 | 104.3 g/day | 8.333% | 63.78 g/day | not as effective | – | – | – | – | – |
| CCCCCCCCCCCC(=O)OCC [ethyl dodecanoate] | 42.41 b | 0.977 | 1.048 | 1.013 | 1.626 | 106.5 g/day | 4.621% | 65.5 g/day | – | significantly reduce diarrhoea | overall significant reduction | complete inhibition | complete inhibition | higher than the free fatty acid |
| CCCCCCCC(=O)OC [methyl octanoate] | – | – | – | – | – | – | – | – | – | – | – | nearly the same results | – | – |
